Assay results taken from paper PMC10791743, “Selective CK1α degraders exert antiproliferative activity against a broad range of human cancer cell lines” (Nature Communications, 2024).
“And” between values parts separate entries of the source, which are not always exact repeats. Identical values can stand only once.

Tests used:
Format in all cases: cell-based, human
MOLM-13 cells [1] = assay: Annexin-V staining for apoptosis, wild type MOLM-13; settings: for total apoptosis, flow cytometry: MOLM-13; for Late apoptosis, flow cytometry / Early apoptosis, flow cytometry: WT
Experimental: (§1) Wild type and CRBN^−/− MOLM-13 cells were grown in 12-well plates (TPP, Techno Plastic Products AG) with 500,000 cells per well in 2 ml total media volume. Cells were treated with 1 μl/ml DMSO or 1 μM compound in triplicate, and incubated for 24 or 72 h at 37 °C. To prepare samples, this buffer was used: 10 mM HEPES, 0.14 M NaCl, 2.5 mM CaCl2 pH 7.4, 2% v/v FBS in UltraPure water (Invitrogen). After incubation, samples were collected in 5-ml tubes for flow cytometry (Falcon). Single-stain controls consisted of ~150 μl of multiple samples combined. Wells were washed with 1 ml of buffer that was added to the corresponding sample tube. Cells were centrifuged at 500×g for 5 min at 4 °C to form a pellet. Supernatant was decanted and cells were washed again with 3 ml of buffer, then centrifuged. After decanting the supernatant, 3 μl of APC-conjugated anti-Annexin-V antibody (BioLegend) was added to each tube in the residual buffer left behind. Samples were mixed by vortex and incubated at room temperature in the dark for 20 min. Samples were then washed and centrifuged a final time, decanting the supernatant and blotting the tubes to remove residual buffer. 50 μl of buffer with DAPI was added to all appropriate samples and mixed, then analyzed by flow cytometry.
(§2) Supplementary Fig. 13: Gating for Annexin V flow cytometry analysis. Total cells were gated to remove cell debris, followed by single cell gating on the FSC-A/FSC-H diagonal. Within the single […]
(§3) Live cells are negative for both fluorescent markers, DAPI positive/APC negative cells are necrotic, APC positive/DAPI negative cells are still alive but in the early stages of apoptosis, and double positive cells are dead via apoptosis. Percentages of early and late apoptosis were plotted in supplementary figures 4 and 5.
(§4) (1 picture or pasted object on this page, not shown here)

MOLM-13 cells [2] = assay: MOLM-13 cell viability assay (CTG, 72 h); design: key to Cell viability in MOLM-13 cells / cell viability, dose-response replicate values: % viability = 100 − % activity, normalized to controls; settings: for Cell viability in MOLM-13 cells: SJ3149 series
CRBN−/− MOLM-13 cells [3] = assay: Annexin-V staining for apoptosis, CRBN−/− MOLM-13; settings: for Late apoptosis, flow cytometry / Early apoptosis, flow cytometry: CRBN-/-; for total apoptosis, flow cytometry: MOLM-13 CRBN-/-
Experimental: as §1, §2, §3, §4

CRBN−/− MOLM-13 cells [4] = assay: Wild type versus CRBN−/− MOLM-13 cells (viability, CRBN dependence); design: key to cell viability, dose-response replicate values: % viability = 100 − % activity (RLU normalized to negative control); settings: for cell viability, dose-response replicate values: MOLM-13 CRBN KO
Text: Having identified SJ7095 as a compound with a potent antiproliferative effect in MOLM-13 cells, we next examined whether the observed effect was CRBN-dependent. […] In an orthogonal approach, we tested SJ7095 in wild-type and CRBN-knockout MOLM-13 cells in a cell viability assay (Supplementary Fig. 1b).
CRBN^−/− MOLM-13 cells were created using CRISPR-Cas9 technology. Briefly, 1 million MOLM-13 cells were transiently transfected with precomplexed ribonuclear proteins (RNPs) consisting of 400 pmol of chemically modified sgRNA (Synthego), 135pmol of SpCas9 protein (St. Jude Protein Production Core), and 500 ng of pMaxGFP (Lonza) via nucleofection (Lonza, 4D-Nucleofector™ X-unit) using solution SF and program EO100 in a 100 µl cuvette according to the manufacturer’s recommended protocol. Transfected cells (GFP+) were single-cell sorted by flow cytometry (St. Jude Flow Cytometry and Cell Sorting Shared Resource) into 96-well tissue culture-treated plates 5 days post nucleofection. Cells were clonally expanded and screened for the desired targeted modification (out-of-frame indels) via targeted deep sequencing using gene-specific primers with partial Illumina adapter overhangs as previously described. Genotyping of clones was performed using CRIS.py[59]. Knockout clones were identified as clones containing only out-of-frame indels. PowerPlex® Fusion System (Promega) was used to confirm final clone identification (Hartwell Center for Biotechnology at St. Jude). All clones tested negative for mycoplasma by the MycoAlert^TMPlus Mycoplasma Detection Kit (Lonza). CRBN knockout confirmed by immunoblot (Supplementary Material).
MOLM-13 cells were plated in Corning 8804BC white 384-well assay plates at the appropriate cell number per well and incubated overnight at 37 °C in a humidified 5 % CO2 incubator. Compounds were transferred to the assay plate from a dose-response plate using a Labcyte Echo 650 Acoustic Liquid Handler (Beckman Coulter , USA). Cytotoxicity was determined following 72 h of incubation using Promega’s CellTiter-Glo reagent according to the manufacturer’s recommendation.
Luminescence was measured on the Envision plate reader (PerkinElmer, USA). Raw luminescence relative light unit (RLU) values for each compound at each concentration were normalized to obtain % activity using the following equation (1): 100 × [(mean(negctrl) – compound)/(mean (negctrl) – mean (posctrl))]. The % activity was converted to % viability using the following equation (2):
(100 – % activity), and then pooled from replicate experiments prior to fitting. Here, negctrl and posctrl refer to the negative (DMSO) and positive controls (staurosporine) on each plate. Dose-response curves were fit to the Hill equation using the GraphPad Prism (version 10). […]

O=C1CCC(N2Cc3cc(Nc4noc5ccccc45)ccc3C2=O)C(=O)N1 (stereo not drawn) [SJ3149]
Cells dead or dying (annexin-V) (MOLM-13 cells [1]; 1 μM, 72 h): ~ 80% | Treatment-induced cell death (annexin-V) (MOLM-13 cells [1]; 1 μM, 72 h, vs DMSO): increased cell death | total apoptosis, flow cytometry (MOLM-13 cells [1]; SI_Fig 4c, DMSO 9.7, 8.6, 9.8): 30.6 and 31.3 and 31.4 | total apoptosis, flow cytometry (MOLM-13 cells [1]; SI_Fig 5c, DMSO 8, 7.6, 6.1): 81.1 and 51.1 and 84.7 | Late apoptosis, flow cytometry (MOLM-13 cells [1]; SI_Fig 4b, DMSO 3, 2.7, 3): 8.5 and 9.4 and 9.1 | Early apoptosis, flow cytometry (MOLM-13 cells [1]; SI_Fig 4b, DMSO 6.8, 5.8, 6.8): 22.2 and 21.9 and 22.3 | Late apoptosis, flow cytometry (MOLM-13 cells [1]; SI_Fig 5b, DMSO 1.5, 1.2, 1.2): 37.1 and 24.3 and 39.1 | Early apoptosis, flow cytometry (MOLM-13 cells [1]; SI_Fig 5b, DMSO 6.5, 6.4, 4.9): 44 and 26.8 and 45.7 | Effect on MOLM-13 cell viability (cytotoxicity) (MOLM-13 cells [2]; CTG 72 h): more robust effect on the viability of MOLM-13 cells | IC50 (MOLM-13 cells [2]; Homo sapiens, MOLM-13, CTG 72 h, read-out: IC50, MOLM-13 cell growth/viability): 13 nM | Cell viability in MOLM-13 cells (MOLM-13 cells [2]; Conc 0.000508): 101.693 and 103.275 and 101.343 | Cell viability in MOLM-13 cells (MOLM-13 cells [2]; Conc 0.00152416): 101.046 and 101.638 and 102.894 | Cell viability in MOLM-13 cells (MOLM-13 cells [2]; Conc 0.00457247): 93.8551 and 92.4498 and 91.2385 | Cell viability in MOLM-13 cells (MOLM-13 cells [2]; Conc 0.0137174): 62.1406 and 65.1592 and 63.0989 | Cell viability in MOLM-13 cells (MOLM-13 cells [2]; Conc 0.0411523): 25.3582 and 28.4617 and 24.9569 | Cell viability in MOLM-13 cells (MOLM-13 cells [2]; Conc 0.123457): 6.148 and 8.382 and 8.141 | Cell viability in MOLM-13 cells (MOLM-13 cells [2]; Conc 0.37037): 3.25 and 4.028 and 3.791 | Cell viability in MOLM-13 cells (MOLM-13 cells [2]; Conc 1.11111): 2.026 and 2.1314 and 2.9156 | Cell viability in MOLM-13 cells (MOLM-13 cells [2]; Conc 3.33333): 1.946 and 1.78 and 2.069 | Cell viability in MOLM-13 cells (MOLM-13 cells [2]; Conc 10): 0.7978 and 0.8668 and 1.097 | Effect on viability of CRBN−/− cells (annexin-V) (CRBN−/− MOLM-13 cells [3]; 1 μM): no effect on the viability | Late apoptosis, flow cytometry (CRBN−/− MOLM-13 cells [3]; SI_Fig 4b, DMSO 3.1, 3.5, 3.3): 2.9 and 2.8 and 2.6 | Early apoptosis, flow cytometry (CRBN−/− MOLM-13 cells [3]; SI_Fig 4b, DMSO 7.1, 7.5, 7.8): 8.1 and 7.5 and 5.1 | Late apoptosis, flow cytometry (CRBN−/− MOLM-13 cells [3]; SI_Fig 5b, DMSO 1.3, 1.9, 2): 2.1 and 1.7 and 2.2 | Early apoptosis, flow cytometry (CRBN−/− MOLM-13 cells [3]; SI_Fig 5b, DMSO 4.6, 5.9, 7.6): 6.7 and 6.2 and 6.6 | total apoptosis, flow cytometry (CRBN−/− MOLM-13 cells [3]; SI_Fig 4c, DMSO 10.2, 11.1, 11.2): 10.9 and 10.4 and 7.6 | total apoptosis, flow cytometry (CRBN−/− MOLM-13 cells [3]; SI_Fig 5c, DMSO 5.8, 7.8, 9.6): 8.8 and 7.9 and 8.7 | viability at 0.000508 µM (CRBN−/− MOLM-13 cells [4]; Homo sapiens, MOLM-13, MOLM-13 CRBN KO, Conc 0.000508 uM, read-out: cell viability, dose-response replicate values): 113% | viability at 0.00152416 µM (CRBN−/− MOLM-13 cells [4]; Homo sapiens, MOLM-13, MOLM-13 CRBN KO, Conc 0.00152416 uM, read-out: cell viability, dose-response replicate values): 116% | viability at 0.00457247 µM (CRBN−/− MOLM-13 cells [4]; Homo sapiens, MOLM-13, MOLM-13 CRBN KO, Conc 0.00457247 uM, read-out: cell viability, dose-response replicate values): 120% | viability at 0.0137174 µM (CRBN−/− MOLM-13 cells [4]; Homo sapiens, MOLM-13, MOLM-13 CRBN KO, Conc 0.0137174 uM, read-out: cell viability, dose-response replicate values): 115% | viability at 0.0411523 µM (CRBN−/− MOLM-13 cells [4]; Homo sapiens, MOLM-13, MOLM-13 CRBN KO, Conc 0.0411523 uM, read-out: cell viability, dose-response replicate values): 116% | viability at 0.123457 µM (CRBN−/− MOLM-13 cells [4]; Homo sapiens, MOLM-13, MOLM-13 CRBN KO, Conc 0.123457 uM, read-out: cell viability, dose-response replicate values): 113% | viability at 0.37037 µM (CRBN−/− MOLM-13 cells [4]; Homo sapiens, MOLM-13, MOLM-13 CRBN KO, Conc 0.37037 uM, read-out: cell viability, dose-response replicate values): 118% | viability at 10 µM (CRBN−/− MOLM-13 cells [4]; Homo sapiens, MOLM-13, MOLM-13 CRBN KO, Conc 10 uM, read-out: cell viability, dose-response replicate values): 80.2% | cell viability, dose-response replicate values (CRBN−/− MOLM-13 cells [4]; Conc 0.000508 uM): 112.4 and 118.871 | cell viability, dose-response replicate values (CRBN−/− MOLM-13 cells [4]; Conc 0.00152416 uM): 110.951 and 120.77 | cell viability, dose-response replicate values (CRBN−/− MOLM-13 cells [4]; Conc 0.00457247 uM): 113.675 and 126.396 | cell viability, dose-response replicate values (CRBN−/− MOLM-13 cells [4]; Conc 0.0137174 uM): 112.684 and 118.779 | cell viability, dose-response replicate values (CRBN−/− MOLM-13 cells [4]; Conc 0.0411523 uM): 113.146 and 122.731 | cell viability, dose-response replicate values (CRBN−/− MOLM-13 cells [4]; Conc 0.123457 uM): 114.423 and 122.764 | cell viability, dose-response replicate values (CRBN−/− MOLM-13 cells [4]; Conc 0.37037 uM): 115.466 and 130.548 | cell viability, dose-response replicate values (CRBN−/− MOLM-13 cells [4]; Conc 1.11111 uM): 110.229 and 104.531 and 126.2 | cell viability, dose-response replicate values (CRBN−/− MOLM-13 cells [4]; Conc 3.33333 uM): 104.594 and 98.0101 and 119.909 | cell viability, dose-response replicate values (CRBN−/− MOLM-13 cells [4]; Conc 10 uM): 76.5849 and 88.9707
